In patent US20260248134A1, “A METHOD FOR CONTROLLING WEEDS” (UPL MAURITIUS LIMITED, priority 2023, published 2026):

Assays:
Experiment in all cases: Control of weeds at post-emergence stage (Example 10)
Type in all cases: in vivo
Digitaria nuda = tested on: Digitaria nuda
Source text: (§1) The effect of application of asulam was observed on the growth of weeds at post-emergence stage for different application rates. The percentage (%) control of weeds has been evaluated and disclosed in Table 10.

Cynodon dactylon = tested on: Cynodon dactylon
Source text: as §1

Bidens pilosa = tested on: Bidens pilosa
Source text: as §1

Brachiaria plantaginea = tested on: Brachiaria plantaginea
Source text: as §1

Measured: percentage (%) control of weeds

COC(=O)NS(=O)(=O)c1ccc(N)cc1 [Asulam, asulam]
95%: Cynodon dactylon; 4000 g a.i/ha, 28 DAA | Bidens pilosa; 2250 g a.i/ha, 35 DAA | Brachiaria plantaginea; 2250 g a.i/ha, 28 DAA
93%: Digitaria nuda; 4000 g a.i/ha, 28 DAA | Bidens pilosa; 2250 g a.i/ha, 28 DAA | Brachiaria plantaginea; 2500 g a.i/ha, 28 DAA
96%: Digitaria nuda; 3200 g a.i/ha, 28 DAA | Cynodon dactylon; 2800 g a.i/ha, 28 DAA | Cynodon dactylon; 3200 g a.i/ha, 49 DAA | Cynodon dactylon; 4000 g a.i/ha, 35 DAA
73%: Brachiaria plantaginea; 2250 g a.i/ha, 49 DAA
94%: Digitaria nuda; 4000 g a.i/ha, 35 DAA | Digitaria nuda; 4000 g a.i/ha, 49 DAA | Cynodon dactylon; 2400 g a.i/ha, 28 DAA | Cynodon dactylon; 3200 g a.i/ha, 28 DAA | Cynodon dactylon; 3200 g a.i/ha, 35 DAA | Bidens pilosa; 1800 g a.i/ha, 28 DAA | Bidens pilosa; 2250 g a.i/ha, 49 DAA
88%: Brachiaria plantaginea; 2250 g a.i/ha, 35 DAA
92%: Brachiaria plantaginea; 1800 g a.i/ha, 28 DAA | Brachiaria plantaginea; 1800 g a.i/ha, 35 DAA | Brachiaria plantaginea; 2500 g a.i/ha, 35 DAA
99%: Digitaria nuda; 2800 g a.i/ha, 28 DAA | Digitaria nuda; 2800 g a.i/ha, 35 DAA | Digitaria nuda; 2800 g a.i/ha, 49 DAA | Cynodon dactylon; 2400 g a.i/ha, 49 DAA
83%: Brachiaria plantaginea; 1800 g a.i/ha, 49 DAA
100%: Digitaria nuda; 3200 g a.i/ha, 35 DAA | Digitaria nuda; 3200 g a.i/ha, 49 DAA | Cynodon dactylon; 2800 g a.i/ha, 49 DAA | Cynodon dactylon; 4000 g a.i/ha, 49 DAA | Bidens pilosa; 1000 g a.i/ha, 28 DAA | Bidens pilosa; 1000 g a.i/ha, 35 DAA | Bidens pilosa; 1000 g a.i/ha, 49 DAA | Bidens pilosa; 1500 g a.i/ha, 28 DAA | Bidens pilosa; 1500 g a.i/ha, 35 DAA | Bidens pilosa; 1500 g a.i/ha, 49 DAA | Brachiaria plantaginea; 2500 g a.i/ha, 49 DAA
97%: Cynodon dactylon; 2400 g a.i/ha, 35 DAA | Cynodon dactylon; 2800 g a.i/ha, 35 DAA | Bidens pilosa; 1800 g a.i/ha, 35 DAA | Bidens pilosa; 1800 g a.i/ha, 49 DAA
